The values below come from patent US12122761B2, “2-azaspiro[3.4]octane derivatives as M4 agonists” (NOVARTIS AG, priority 2019, dated 2024).

Some results are limits rather than exact numbers.

For assay [1], the target named is T1, human cloned CHRM5 receptor (M5_CHO) (Homo sapiens, UniProt P08912).
T1 construct: expressed in transfected cells; host or cells: CHO (M5_CHO)
T1 sequence (P08912 1-532): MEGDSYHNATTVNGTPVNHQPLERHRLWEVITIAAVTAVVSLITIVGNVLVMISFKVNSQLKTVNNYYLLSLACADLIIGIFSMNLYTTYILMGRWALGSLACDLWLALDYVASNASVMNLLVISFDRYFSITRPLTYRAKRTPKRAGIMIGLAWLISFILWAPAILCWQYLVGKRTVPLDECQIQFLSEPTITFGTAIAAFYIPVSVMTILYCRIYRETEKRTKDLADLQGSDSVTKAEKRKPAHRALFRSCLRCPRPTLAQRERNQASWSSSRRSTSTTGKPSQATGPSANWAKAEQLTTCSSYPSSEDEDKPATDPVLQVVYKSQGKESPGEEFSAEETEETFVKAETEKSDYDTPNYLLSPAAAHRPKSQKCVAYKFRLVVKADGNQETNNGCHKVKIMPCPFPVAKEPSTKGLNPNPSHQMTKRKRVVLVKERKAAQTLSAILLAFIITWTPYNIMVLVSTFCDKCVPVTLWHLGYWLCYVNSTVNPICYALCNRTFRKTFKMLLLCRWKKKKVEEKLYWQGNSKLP
Description: CHRM5 Ca++ Flux Assay (agonist mode, FDSS 7000EX). The note with it: for M5 FDSS PA: Percent Activity measured to EC100 of Carbachol; for EC50: agonist mode, geometric mean if tested more than once, read-out: M5 FDSS EC50. Type of assay: cell-based. How it is done: (§1) The above examples were characterized by measuring the intracellular mobilization of Ca++ ions caused by signaling events mediated by the receptor. The Intra-cellular Calcium flux levels were captured by the highly sensitive Ca++ indicator, Calcium Assay Kit (BD Biosciences, Catalog Number 640178). The fluorescent activity from all receptors were monitored by the fluorescent imager, FDSS 7000EX (Hamamatsu) over a span of 3 minutes.
CHO-K1 cells stably expressing the human cloned CHRM3 receptor (M3_CHO cells) were grown and maintained in a monolayer culture with F12/HAM (Life Technologies) supplemented with 10% Fetal Bovine Serum, 1× Pen-Strep, and 0.4 mg/mL Geneticin in a humidified atmosphere (5% CO2) at 37° C. The cultures were grown to 80-9 0% confluency in T150 flasks (Corning) and washed with 1×DPBS and lifted with 0.05% Trypsin (Life Technologies). The cells were then spun (1K rpm, 3 minutes) and frozen using Recovery Cell Culture Freezing Media (Gibco Technologies). Cells were stored in liquid nitrogen and thawed a day before the assay. A similar procedure was used for cells stably expressing the human cloned CHRM5 receptor (M5_CHO).
Prior to the day of the assay, stable M3_CHO or M5_CHO cells were thawed and plated on Greiner 384 well black TC treated plates at 12K cells/well in F12/DMEM supplemented with 10% FBS (Hyclone) and kept overnight in a humidified atmosphere (5% CO2) at 37° C. The next day, cells were loaded with Ca^++ dye (BD Biosciences) using Loading Buffer (HBSS +Ca/+Mg, 20 mM HEPES, 2.5 mM Probenecid) and placed back in cell incubator for a minimum of 1 hour. After incubation, the dye was replaced with Assay Buffer (HBSS −Ca/−Mg, 20 mM HEPES, 2.5 mM Probenecid) and kept at room temperature in the dark before running on cell imager. The FDSS 7000EX (Hamamatsu) was used to acquire Ca^++ traces from cells treated with 11 point dose response of compounds in triplicate in order to generate dose response curves in agonist mode. All compounds were serially diluted in DMSO then prepared in Assay Buffer for Ca^++ flux studies. The dose response curves were generated from the average of triplicate wells obtained from each data point and used a non-linear regression of four parameter dose response algorithm. The Percent Activity (PA) was measured to EC100 of Carbachol.

Assay [2] has as its target T2, human cloned CHRM4 receptor (M4_CHO cells) (Homo sapiens, UniProt P08173).
T2 construct: expressed in transfected cells; host or cells: CHO-K1
T2 sequence (P08173 1-479): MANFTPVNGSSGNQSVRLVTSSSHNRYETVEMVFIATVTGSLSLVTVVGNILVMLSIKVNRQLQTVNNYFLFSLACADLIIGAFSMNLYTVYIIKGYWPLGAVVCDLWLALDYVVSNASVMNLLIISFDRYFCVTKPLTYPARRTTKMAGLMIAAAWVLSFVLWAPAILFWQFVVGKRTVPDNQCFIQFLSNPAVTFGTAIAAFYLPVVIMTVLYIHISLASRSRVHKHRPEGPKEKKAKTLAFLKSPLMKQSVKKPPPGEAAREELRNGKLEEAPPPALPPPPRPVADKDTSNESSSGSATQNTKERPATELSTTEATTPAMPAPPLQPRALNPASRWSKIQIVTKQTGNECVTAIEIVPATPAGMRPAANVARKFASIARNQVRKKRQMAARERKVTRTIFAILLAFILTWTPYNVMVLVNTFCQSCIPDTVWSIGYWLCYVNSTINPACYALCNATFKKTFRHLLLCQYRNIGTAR
Description: CHRM4 Ca++ Flux Assay (agonist mode, FDSS 7000EX). Type of assay: cell-based. The note with it: for M4 FDSS PA: Percent Activity; for EC50: geometric mean if tested more than once, read-out: M4 FDSS EC50. How it is done: as §1
CHO-K1 cells stably expressing the human cloned CHRM4 receptor (M4_CHO cells) were grown and maintained in a monolayer culture with F12/HAM (Life Technologies) supplemented with 10% Fetal Bovine Serum, 1× Pen-Strep, and 0.4 mg/mL Geneticin in a humidified atmosphere (5% CO2) at 37° C. The cultures were grown to 80-90% confluency in T150 flasks (Corning) and washed with 1×DPBS then lifted with 0.05% Trypsin (Life Technologies). The cells were harvested in growth media then spun (1K rpm, 3 minutes) and cryopreserved using Recovery Cell Culture Freezing Media (Gibco Technologies). Cells were stored in liquid nitrogen and thawed a day before the assay.
Prior to the day of the assay, stable M4_CHO cells were thawed and plated on 384 well black walled clear bottom TC treated plates (Greiner Cat #781091) at 12K cells/well using F12/HAM Media supplemented with 10% FBS (Life Technologies) and kept overnight in a humidified atmosphere (5% CO2) at 37° C. The next day, cells were loaded with […] Ca^++ dye (BD Biosciences) using Loading Buffer (HBSS +Ca/+Mg, 20 mM HEPES, 2.5 mM Probenecid) and placed back in cell incubator for a minimum of 1 hour. After incubation, the dye was replaced with 45 μL Assay Buffer (HBSS −Ca/−Mg, 20 mM HEPES, 2.5 mM Probenecid) supplemented with 20 μM ATP (Sigma Aldrich) and kept at room temperature in the dark for 60 minutes before running on a cell imager. The FDSS 7000EX (Hamamatsu) was used to capture Ca^++ traces for a span of 3 minutes from cells treated with 11 point dose of compound in triplicate in order to generate dose response curves in agonist mode. All compounds were serially diluted in DMSO then prepared in Assay Buffer for Ca^++ flux studies. The dose response curves were generated from the average of triplicate wells obtained from each data point and used a non-linear regression of four parameter dose response algorithm. The Percent Activity (PA) was measured to EC100 of Carbachol.

Consider `O=C1CCCN1CCOc1ccccc1C1CCN([C@@H]2CCC3(C2)CN(C(=O)C2(F)CC2)C3)CC1.O=CO` (single isomer, unassigned) [Example 7P, (R)-1-(2-(2-(1-(2-(1-fluorocyclopropane-1-carbonyl)-2-azaspiro[3.4]octan-6-yl)piperidin-4-yl)phenoxy)ethyl)pyrrolidin-2-one formate salt or (S)-1-(2-(2-(1-(2-(1-fluorocyclopropane-1-carbonyl)-2-azaspiro[3.4]octan-6-yl)piperidin-4-yl)phenoxy)ethyl)pyrrolidin-2-one formate salt], for which, in assay [1], the “M5 FDSS PA” value was 0% and the EC50 is over 25 µM. In addition, in assay [2], the “M4 FDSS PA” value was 49% and the concentration for a half-maximal effect (EC50) was determined as 0.001 µM.
Regarding `O=C(N1CC2(CC[C@@H](N3CCC(c4ccccc4OCC4CCOCC4)CC3)C2)C1)C1(F)CC1` (single isomer, unassigned) [Example 7Q, (R)-(1-fluorocyclopropyl)(6-(4-(2-((tetrahydro-2H-pyran-4-yl)methoxy)phenyl)piperidin-1-yl)-2-azaspiro[3.4]octan-2-yl)methanone or (S)-(1-fluorocyclopropyl)(6-(4-(2-((tetrahydro-2H-pyran-4-yl)methoxy)phenyl)piperidin-1-yl)-2-azaspiro[3.4]octan-2-yl)methanone], in assay [1], the “M5 FDSS PA” value came out at 0% and the EC50 was over 25 µM. In assay [2], the “M4 FDSS PA” value stood at 48% and the EC50 worked out at 0.003 µM.
On to `Cc1nnc(COc2ccccc2C2CCN([C@@H]3CCC4(C3)CN(C(=O)C3(F)CC3)C4)CC2)s1` (single isomer, unassigned) [Example 7R, (R)-(1-fluorocyclopropyl)(6-(4-(2-((5-methyl-1,3,4-thiadiazol-2-yl)methoxy)phenyl)piperidin-1-yl)-2-azaspiro[3.4]octan-2-yl)methanone or (S)-(1-fluorocyclopropyl)(6-(4-(2-((5-methyl-1,3,4-thiadiazol-2-yl)methoxy)phenyl)piperidin-1-yl)-2-azaspiro[3.4]octan-2-yl)methanone], for which, in assay [1], the “M5 FDSS PA” value stood at 0% and the half-maximal effective concentration (EC50) was over 25 µM. For the same molecule, in assay [2], the “M4 FDSS PA” value came to 36% and the concentration for a half-maximal effect (EC50) was determined as 0.062 µM.
Taken in the same sequence, the figures for `CCOc1ccccc1C1CCN([C@@H]2CCC3(C2)CN(C(=O)C2(F)CC2)C3)CC1` (single isomer, unassigned) [Example 7S, (R)-(6-(4-(2-ethoxyphenyl)piperidin-1-yl)-2-azaspiro[3.4]octan-2-yl)(1-fluorocyclopropyl)methanone or (S)-(6-(4-(2-ethoxyphenyl)piperidin-1-yl)-2-azaspiro[3.4]octan-2-yl)(1-fluorocyclopropyl)methanone] were 0%, over 25 µM, 26% and 2.65 µM.
In the same order, the values of `O=C(N1CC2(CC[C@@H](N3CCC(c4ccccc4OCC4CC4)CC3)C2)C1)C1(F)CC1` (single isomer, unassigned) [Example 7T, (R)-(6-(4-(2-(cyclopropylmethoxy)phenyl)piperidin-1-yl)-2-azaspiro[3.4]octan-2-yl)(1-fluorocyclopropyl)methanone or (R)-(6-(4-(2-(cyclopropylmethoxy)phenyl)piperidin-1-yl)-2-azaspiro[3.4]octan-2-yl)(1-fluorocyclopropyl)methanone] are 0%, over 25 µM, 5% and 12.1 µM.
Taken in the same sequence, the figures for `Cc1noc(C)c1COc1ccccc1C1CCN([C@@H]2CCC3(C2)CN(C(=O)C2(F)CC2)C3)CC1` (single isomer, unassigned) [Example 7U, (R)-(6-(4-(2-((3,5-dimethylisoxazol-4-yl)methoxy)phenyl)piperidin-1-yl)-2-azaspiro[3.4]octan-2-yl)(1-fluorocyclopropyl)methanone or (S)-(6-(4-(2-((3,5-dimethylisoxazol-4-yl)methoxy)phenyl)piperidin-1-yl)-2-azaspiro[3.4]octan-2-yl)(1-fluorocyclopropyl)methanone] were 0%, over 25 µM, 1% and over 25 µM.
`Cc1ncc(COc2ccccc2C2CCN([C@@H]3CCC4(C3)CN(C(=O)C3(F)CC3)C4)CC2)o1` (single isomer, unassigned) [Example 7V, (R)-(1-fluorocyclopropyl)(6-(4-(2-((2-methyloxazol-5-yl)methoxy)phenyl)piperidin-1-yl)-2-azaspiro[3.4]octan-2-yl)methanone or (S)-(1-fluorocyclopropyl)(6-(4-(2-((2-methyloxazol-5-yl)methoxy)phenyl)piperidin-1-yl)-2-azaspiro[3.4]octan-2-yl)methanone]: in assay [1], the “M5 FDSS PA” value came out at 0% and the EC50 was over 25 µM. Also, in assay [2], the “M4 FDSS PA” value was 23% and the half-maximal effective concentration (EC50) was determined as 0.353 µM.

By EC50 is commonly meant the concentration that produces a half-maximal response.
